How the values were obtained:
Ba/F3-Flt3-ITD cells = assay: Ba/F3-Flt3-ITD cell proliferation/cytotoxicity (Yo-Pro); type: cell-based; conditions: Ba/F3 cells dependent on mutant Flt3, 48 hours, read-out: IC50 in the assay described by example 14
From the text: Compounds that have differential activity (more than or equal to 10 fold difference in sensitivity between Flt3+ cell lines and Flt3− cell lines are selected for further study.
The cell lines used for the initial screening are sub-lines of Ba/F3 cells that are engineered to over-express mutant or wild-type (non-mutated) Flt3 following infection with a retrovirus expressing appropriate Flt3 cDNAs. The parent cell line, Ba/F3 is dependent on interleukin-3 for proliferation, and when deprived of IL-3, the cells rapidly cease proliferation and die. The retrovirus expresses Flt3 from the retrovirual LTR and the neo gene from an IRES site. Ba/F3 cells are selected in G418 and analyzed for expression of Flt3 by fluorescence activated cell sorting (FACS). Cell lines with two different Flt3 mutations are used. One mutant expresses a Flt-3 that has a 14 amino acid duplication in the juxtamembrane domain encoded by exon 11, the specific duplication being . . . VDFREYEYDLKWEF . . . […]
Yo-Pro-1 iodide (Molecular Probes) is added to the cells at a final concentration of 2.5 μM in NaCl/Na-citrate buffer. The cells are incubated with Yo-Pro for 10 minutes at room temperature and then read on a fluorimeter for determination of cytotoxicity. Next, the cells are lysed with NP40/EDTA/EGTA buffer, incubated at room temperature for 90 minutes and read for the determination of proliferation. […]

purified GST-Flt-3 = biological target: T1, purified GST-Flt-3 (Homo sapiens, UniProt P36888); assay: Flt-3 tyrosine protein kinase assay, 33P incorporation from γ-33P-ATP into poly-EY; type: biochemical; conditions: purified GST-Flt-3, 10 μM ATP; read-out: IC50 in the assay described in example 13
T1 sequence (P36888 27-993): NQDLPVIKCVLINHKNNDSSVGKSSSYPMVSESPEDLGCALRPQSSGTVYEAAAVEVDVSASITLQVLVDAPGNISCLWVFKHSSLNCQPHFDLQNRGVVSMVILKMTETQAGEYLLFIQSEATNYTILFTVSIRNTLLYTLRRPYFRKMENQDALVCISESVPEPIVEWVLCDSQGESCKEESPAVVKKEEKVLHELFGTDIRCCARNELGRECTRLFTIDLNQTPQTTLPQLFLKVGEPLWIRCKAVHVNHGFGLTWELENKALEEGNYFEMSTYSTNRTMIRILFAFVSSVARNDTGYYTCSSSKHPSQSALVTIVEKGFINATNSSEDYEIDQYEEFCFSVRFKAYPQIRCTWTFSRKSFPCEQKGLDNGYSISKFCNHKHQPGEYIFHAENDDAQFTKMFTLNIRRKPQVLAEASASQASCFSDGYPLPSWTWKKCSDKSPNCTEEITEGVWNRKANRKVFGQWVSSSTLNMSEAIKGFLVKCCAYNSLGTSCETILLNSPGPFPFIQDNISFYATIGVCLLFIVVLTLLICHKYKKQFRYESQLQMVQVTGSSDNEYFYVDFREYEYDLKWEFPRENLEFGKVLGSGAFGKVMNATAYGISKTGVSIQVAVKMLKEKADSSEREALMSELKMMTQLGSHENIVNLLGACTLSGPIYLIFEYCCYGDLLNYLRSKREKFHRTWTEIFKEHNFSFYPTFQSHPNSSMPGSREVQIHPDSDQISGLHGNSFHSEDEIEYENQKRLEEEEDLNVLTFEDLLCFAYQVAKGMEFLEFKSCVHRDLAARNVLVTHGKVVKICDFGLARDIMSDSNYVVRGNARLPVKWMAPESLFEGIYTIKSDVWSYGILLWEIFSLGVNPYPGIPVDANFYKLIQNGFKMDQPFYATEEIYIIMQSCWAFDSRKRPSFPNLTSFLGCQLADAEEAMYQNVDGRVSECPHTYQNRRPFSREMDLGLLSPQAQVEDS
Procedure: The activity is assayed in the presence or absence of different concentrations of inhibitors, by measuring the incorporation of ^33P from γ-^33P-ATP into appropriate substrates.
Tyrosine protein kinase assay with purified GST-Flt-3 is carried out in a final volume of 40 μL containing 500 ng of enzyme in kinase buffer (30 mM Tris-HCl (pH7.5), 3 mM MnCl2, 15 mM MgCl2, 1.5 mM DTT, 15 μM Na3VO4, 7.5 mg/ml PEG, 0.25 μM poly-EY(Glu, Tyr), 1% DMSO (at highest concentration of compound), 10 μM ATP and γ-^33P-ATP (0.1 μCi)). Two solutions are made: the first solution of 10 μl contains the Flt-3 enzyme and the inhibitor. The second solution contains the substrate (poly-EY), ATP, and γ-^33P-ATP in 30 μl of kinase buffer. Both solutions are mixed on 96-well PVDF filter plates (Millipore, Bedford, Mass., USA), previously wetted with 70% ethanol and rinsed with 1M Tris (7.4). The reaction is incubated at room temperature for 20 minutes, stopped with 0.1% phosphoric acid and then filtered through the plate using a vacuum manifold, allowing the substrate to bind to the membrane. The plates are then washed 5 times with 0.1% phosphoric acid, mounted in Packard TopCount 96-well adapter plate, and 50 μL of Microscint™ (Packard) is added to each well before counting. […]

Lck = biological target: T2, Lck (Homo sapiens, UniProt P06239); assay: Upstate KinaseProfiler radio-enzymatic filter binding assay, Lck; type: biochemical; conditions: 10 μM compound; read-out: percentage inhibition, Lck
T2 construct: purchased Upstate
T2 sequence (P06239 whole entry): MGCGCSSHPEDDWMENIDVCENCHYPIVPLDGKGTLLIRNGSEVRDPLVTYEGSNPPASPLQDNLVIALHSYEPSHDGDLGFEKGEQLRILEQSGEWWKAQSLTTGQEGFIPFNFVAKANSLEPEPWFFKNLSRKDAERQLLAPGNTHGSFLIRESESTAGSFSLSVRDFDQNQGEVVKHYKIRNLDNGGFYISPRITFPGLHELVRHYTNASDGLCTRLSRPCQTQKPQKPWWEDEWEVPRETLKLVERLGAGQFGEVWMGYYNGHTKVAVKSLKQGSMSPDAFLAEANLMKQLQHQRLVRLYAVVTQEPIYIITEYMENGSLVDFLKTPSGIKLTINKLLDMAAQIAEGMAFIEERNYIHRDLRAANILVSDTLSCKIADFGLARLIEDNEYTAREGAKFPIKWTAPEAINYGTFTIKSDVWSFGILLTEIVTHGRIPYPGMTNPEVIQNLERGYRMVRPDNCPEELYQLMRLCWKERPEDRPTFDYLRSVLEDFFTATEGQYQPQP
Procedure: (§1) Compounds of the invention are assessed for their ability to inhibit individual members of a panel of kinases (a partial, non-limiting list of kinases includes: cSRC, Lck, FGFR3, Flt3, TrkB and PFGFRα). The compounds are tested in duplicates at a final concentration of 10 μM following this generic protocol. Note that the kinase buffer composition and the substrates vary for the different kinases included in the “Upstate KinaseProfiler™” panel. Kinase buffer (2.5 μL, 10×-containing MnCl2 when required), active kinase (0.001-0.01 Units; 2.51 μL), specific or Poly(Glu4-Tyr) peptide (5-500 μM or 0.01 mg/ml) in kinase buffer and kinase buffer (50 μM; 5 μL) are mixed in an eppendorf on ice. A Mg/ATP mix (10 μL; 67.5 (or 33.75) mM MgCl2, 450 (or 225) μM ATP and 1 μCi/μl [γ-^32P]-ATP (3000 Ci/mmol)) is added and the reaction is incubated at about 30° C. for about 10 minutes. The reaction mixture is spotted (20 μL) onto a 2 cm×2 cm P81 (phosphocellulose, for positively charged peptide substrates) or Whatman No. 1 (for Poly (Glu4-Tyr) peptide substrate) paper square. The assay squares are washed 4 times, for 5 minutes each, with 0.75% phosphoric acid and washed once with acetone for 5 minutes. The assay squares are transferred to a scintillation vial, 5 ml scintillation cocktail are added and ^32P incorporation (cpm) to the peptide substrate is quantified with a Beckman scintillation counter. Percentage inhibition is calculated for each reaction.

TrkB = biological target: T3, TrkB (Homo sapiens, UniProt Q16620); assay: Upstate KinaseProfiler radio-enzymatic filter binding assay, TrkB; type: biochemical; conditions: 10 μM compound; read-out: percentage inhibition, TrkB
T3 construct: purchased Upstate
T3 sequence (Q16620 32-822): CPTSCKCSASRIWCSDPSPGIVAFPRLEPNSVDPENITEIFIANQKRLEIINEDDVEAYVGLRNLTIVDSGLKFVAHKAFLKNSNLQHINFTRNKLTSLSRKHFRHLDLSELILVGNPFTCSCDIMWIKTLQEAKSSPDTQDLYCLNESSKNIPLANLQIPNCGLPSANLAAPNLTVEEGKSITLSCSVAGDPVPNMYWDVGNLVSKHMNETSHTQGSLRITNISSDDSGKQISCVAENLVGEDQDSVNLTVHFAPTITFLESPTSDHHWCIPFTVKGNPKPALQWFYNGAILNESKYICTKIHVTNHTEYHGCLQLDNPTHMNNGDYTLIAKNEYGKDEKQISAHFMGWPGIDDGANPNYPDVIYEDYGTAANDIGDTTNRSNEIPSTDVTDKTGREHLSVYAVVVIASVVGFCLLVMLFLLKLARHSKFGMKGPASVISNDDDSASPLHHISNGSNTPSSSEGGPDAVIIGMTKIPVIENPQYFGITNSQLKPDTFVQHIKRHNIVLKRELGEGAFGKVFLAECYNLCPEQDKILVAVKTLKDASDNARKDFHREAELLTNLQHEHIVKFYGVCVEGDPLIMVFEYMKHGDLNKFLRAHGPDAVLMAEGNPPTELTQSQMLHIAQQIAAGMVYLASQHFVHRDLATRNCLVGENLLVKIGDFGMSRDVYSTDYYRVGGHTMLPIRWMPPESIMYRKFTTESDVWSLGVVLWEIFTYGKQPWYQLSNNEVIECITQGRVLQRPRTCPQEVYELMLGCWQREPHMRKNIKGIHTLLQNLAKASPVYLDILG
Procedure: as §1

Flt3 = biological target: T4, Flt3 (Homo sapiens, UniProt P36888); assay: Upstate KinaseProfiler radio-enzymatic filter binding assay, Flt3; type: biochemical; conditions: 10 μM compound; read-out: percentage inhibition, Flt3
T4 construct: purchased Upstate
T4 sequence (P36888 27-993): T1 sequence (P36888 27-993)
Procedure: as §1

Bmx = biological target: T5, Bmx (Homo sapiens, UniProt P51813); assay: Upstate KinaseProfiler radio-enzymatic filter binding assay, Bmx; type: biochemical; conditions: 10 μM compound; read-out: percentage inhibition, Bmx
T5 construct: purchased Upstate
T5 sequence (P51813 1-675): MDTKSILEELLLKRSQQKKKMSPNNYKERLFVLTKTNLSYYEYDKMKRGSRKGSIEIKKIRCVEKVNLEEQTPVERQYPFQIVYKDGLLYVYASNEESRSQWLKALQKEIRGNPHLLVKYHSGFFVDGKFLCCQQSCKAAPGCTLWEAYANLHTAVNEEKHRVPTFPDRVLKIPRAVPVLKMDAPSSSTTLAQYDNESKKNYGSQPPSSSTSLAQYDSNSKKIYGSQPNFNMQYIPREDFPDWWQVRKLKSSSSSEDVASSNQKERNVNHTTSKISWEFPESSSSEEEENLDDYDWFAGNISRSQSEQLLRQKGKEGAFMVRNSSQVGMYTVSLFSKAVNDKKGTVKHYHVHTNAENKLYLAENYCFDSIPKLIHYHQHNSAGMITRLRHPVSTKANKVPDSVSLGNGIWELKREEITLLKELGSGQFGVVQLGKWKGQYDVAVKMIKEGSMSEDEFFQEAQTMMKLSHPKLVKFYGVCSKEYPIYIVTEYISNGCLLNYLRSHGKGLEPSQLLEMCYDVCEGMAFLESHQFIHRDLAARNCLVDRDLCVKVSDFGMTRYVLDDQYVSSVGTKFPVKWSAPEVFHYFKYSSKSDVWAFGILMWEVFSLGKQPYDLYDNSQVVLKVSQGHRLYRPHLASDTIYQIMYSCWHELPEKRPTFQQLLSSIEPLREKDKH
Procedure: as §1

c-Src = biological target: T6, c-Src (Homo sapiens, UniProt P12931); assay: Upstate KinaseProfiler radio-enzymatic filter binding assay, c-Src; type: biochemical; conditions: 10 μM compound; read-out: percentage inhibition, c-Src
T6 construct: purchased Upstate
T6 sequence (P12931 whole entry): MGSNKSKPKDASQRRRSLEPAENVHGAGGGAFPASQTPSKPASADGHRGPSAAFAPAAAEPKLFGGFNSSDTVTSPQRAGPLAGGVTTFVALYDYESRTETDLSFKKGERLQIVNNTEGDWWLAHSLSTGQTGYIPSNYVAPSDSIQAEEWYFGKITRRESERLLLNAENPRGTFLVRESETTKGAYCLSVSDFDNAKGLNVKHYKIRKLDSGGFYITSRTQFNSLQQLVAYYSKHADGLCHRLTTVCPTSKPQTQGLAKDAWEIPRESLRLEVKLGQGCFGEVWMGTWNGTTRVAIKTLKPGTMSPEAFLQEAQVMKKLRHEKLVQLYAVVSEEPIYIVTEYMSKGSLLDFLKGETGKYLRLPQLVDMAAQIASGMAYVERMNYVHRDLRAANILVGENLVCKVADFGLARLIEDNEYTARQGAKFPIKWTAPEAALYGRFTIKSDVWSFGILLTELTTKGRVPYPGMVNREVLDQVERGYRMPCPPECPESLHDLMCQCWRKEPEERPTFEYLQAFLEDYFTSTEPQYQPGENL
Procedure: as §1

Abl = biological target: T7, Abl (Homo sapiens, UniProt P00519); assay: Upstate KinaseProfiler radio-enzymatic filter binding assay, Abl; type: biochemical; conditions: 10 μM compound; read-out: percentage inhibition, Abl
T7 construct: purchased Upstate
T7 sequence (P00519 whole entry, species assumed): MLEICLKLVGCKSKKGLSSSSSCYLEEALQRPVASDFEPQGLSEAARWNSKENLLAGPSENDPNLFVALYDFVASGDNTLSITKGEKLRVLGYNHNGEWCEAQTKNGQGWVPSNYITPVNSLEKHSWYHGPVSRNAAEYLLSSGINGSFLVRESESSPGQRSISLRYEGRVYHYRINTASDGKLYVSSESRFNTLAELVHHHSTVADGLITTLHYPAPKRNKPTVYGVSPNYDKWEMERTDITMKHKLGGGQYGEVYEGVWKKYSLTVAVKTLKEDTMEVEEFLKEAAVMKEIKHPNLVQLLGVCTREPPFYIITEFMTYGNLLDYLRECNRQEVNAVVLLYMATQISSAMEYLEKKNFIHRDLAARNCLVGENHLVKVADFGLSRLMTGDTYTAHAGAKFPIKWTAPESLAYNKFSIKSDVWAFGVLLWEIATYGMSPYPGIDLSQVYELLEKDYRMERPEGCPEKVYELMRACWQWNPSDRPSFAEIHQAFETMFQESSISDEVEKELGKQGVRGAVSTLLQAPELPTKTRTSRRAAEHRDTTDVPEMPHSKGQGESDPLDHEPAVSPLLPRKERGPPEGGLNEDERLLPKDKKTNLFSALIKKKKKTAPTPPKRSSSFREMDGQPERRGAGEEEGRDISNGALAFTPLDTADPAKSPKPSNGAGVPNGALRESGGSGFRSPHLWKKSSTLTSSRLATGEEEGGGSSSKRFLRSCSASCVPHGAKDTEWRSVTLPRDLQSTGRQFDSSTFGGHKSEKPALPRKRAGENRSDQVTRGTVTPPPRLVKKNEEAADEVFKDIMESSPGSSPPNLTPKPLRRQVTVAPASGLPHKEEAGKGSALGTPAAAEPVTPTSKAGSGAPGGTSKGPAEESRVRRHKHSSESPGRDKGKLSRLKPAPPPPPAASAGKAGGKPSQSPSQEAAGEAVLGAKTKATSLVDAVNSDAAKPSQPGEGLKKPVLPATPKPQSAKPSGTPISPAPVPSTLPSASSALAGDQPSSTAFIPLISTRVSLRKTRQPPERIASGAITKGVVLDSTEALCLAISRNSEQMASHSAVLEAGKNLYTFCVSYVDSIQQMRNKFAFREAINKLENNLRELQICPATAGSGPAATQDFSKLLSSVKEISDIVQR
Procedure: (§2) Compounds of the invention are assessed for their ability to inhibit individual members of a panel of kinases (a partial, non-limiting list of kinases includes: cSRC, Lck, FGFR3, Flt3, TrkB and PFGFRα). The compounds are tested in duplicates at a final concentration of 10 μM following this generic protocol. Note that the kinase buffer composition and the substrates vary for the different kinases included in the “Upstate KinaseProfiler™” panel. Kinase buffer (2.5 μL, 10×-containing MnCl2 when required), active kinase (0.001-0.01 Units; 2.51 μL), specific or Poly(Glu4-Tyr) peptide (5-500 μM or 0.01 mg/ml) in kinase buffer and kinase buffer (50 μM; 5 μL) are mixed in an eppendorf on ice. A Mg/ATP mix (10 μL; 67.5 (or 33.75) mM MgCl2, 450 (or 225) μM ATP and 1 μCi/μl [γ-^32P]-ATP (3000 Ci/mmol)) is added and the reaction is incubated at about 30° C. for about 10 minutes. […] The assay squares are transferred to a scintillation vial, 5 ml scintillation cocktail are added and ^32P incorporation (cpm) to the peptide substrate is quantified with a Beckman scintillation counter. Percentage inhibition is calculated for each reaction.

Rsk1 = biological target: T8, Rsk1 (Homo sapiens, UniProt Q15418); assay: Upstate KinaseProfiler radio-enzymatic filter binding assay, Rsk1; type: biochemical; conditions: 10 μM compound; read-out: percentage inhibition, Rsk1
T8 construct: purchased Upstate
T8 sequence (Q15418 whole entry, species assumed): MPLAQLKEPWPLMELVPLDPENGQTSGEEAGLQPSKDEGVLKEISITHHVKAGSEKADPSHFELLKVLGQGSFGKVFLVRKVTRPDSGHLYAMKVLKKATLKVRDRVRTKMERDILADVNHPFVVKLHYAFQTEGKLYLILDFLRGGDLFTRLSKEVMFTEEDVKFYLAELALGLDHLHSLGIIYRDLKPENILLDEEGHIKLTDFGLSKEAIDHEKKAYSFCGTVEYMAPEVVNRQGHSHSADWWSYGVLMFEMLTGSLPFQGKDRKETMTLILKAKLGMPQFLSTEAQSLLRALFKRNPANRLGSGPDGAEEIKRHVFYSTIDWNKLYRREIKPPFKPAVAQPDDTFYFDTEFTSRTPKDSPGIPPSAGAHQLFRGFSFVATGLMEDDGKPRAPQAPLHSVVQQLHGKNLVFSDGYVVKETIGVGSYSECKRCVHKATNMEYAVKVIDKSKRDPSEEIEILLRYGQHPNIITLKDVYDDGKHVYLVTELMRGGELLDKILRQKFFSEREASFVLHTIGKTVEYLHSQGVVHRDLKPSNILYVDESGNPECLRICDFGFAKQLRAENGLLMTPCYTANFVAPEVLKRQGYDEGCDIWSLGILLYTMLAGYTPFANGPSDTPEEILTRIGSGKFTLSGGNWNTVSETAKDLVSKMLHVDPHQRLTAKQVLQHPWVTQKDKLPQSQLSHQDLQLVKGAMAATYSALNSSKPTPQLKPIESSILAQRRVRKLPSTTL
Procedure: as §2

FGFR3 = biological target: T9, FGFR3 (Homo sapiens, UniProt P22607); assay: Upstate KinaseProfiler radio-enzymatic filter binding assay, FGFR3; type: biochemical; conditions: 10 μM compound; read-out: percentage inhibition, FGFR3
T9 construct: purchased Upstate
T9 sequence (P22607 23-806): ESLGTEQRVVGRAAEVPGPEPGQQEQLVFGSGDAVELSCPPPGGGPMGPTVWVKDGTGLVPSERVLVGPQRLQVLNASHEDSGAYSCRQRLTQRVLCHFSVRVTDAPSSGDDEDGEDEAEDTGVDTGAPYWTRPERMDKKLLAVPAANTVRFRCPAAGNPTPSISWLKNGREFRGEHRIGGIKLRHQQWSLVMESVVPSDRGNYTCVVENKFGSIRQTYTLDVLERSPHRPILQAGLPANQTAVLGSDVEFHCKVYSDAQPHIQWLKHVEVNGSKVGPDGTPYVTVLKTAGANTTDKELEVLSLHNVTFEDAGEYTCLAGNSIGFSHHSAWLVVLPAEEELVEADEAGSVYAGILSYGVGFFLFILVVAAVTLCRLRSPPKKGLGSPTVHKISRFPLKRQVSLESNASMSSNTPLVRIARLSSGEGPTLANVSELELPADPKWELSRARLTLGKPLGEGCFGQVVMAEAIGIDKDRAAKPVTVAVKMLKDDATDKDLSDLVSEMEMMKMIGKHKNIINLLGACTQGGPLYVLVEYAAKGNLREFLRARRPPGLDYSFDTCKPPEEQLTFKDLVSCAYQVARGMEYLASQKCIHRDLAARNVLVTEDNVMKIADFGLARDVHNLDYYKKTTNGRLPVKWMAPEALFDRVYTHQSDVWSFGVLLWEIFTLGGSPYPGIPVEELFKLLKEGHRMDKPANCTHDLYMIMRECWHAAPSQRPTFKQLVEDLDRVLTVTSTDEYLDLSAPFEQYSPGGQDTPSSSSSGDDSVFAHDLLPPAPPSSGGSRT
Procedure: as §2

SMILES | IC50 (Ba/F3-Flt3-ITD cells) | IC50 (purified GST-Flt-3) | inhibition at 10 µM (Lck) | inhibition at 10 µM (TrkB) | inhibition at 10 µM (Flt3) | inhibition at 10 µM (Bmx) | inhibition at 10 µM (c-Src) | inhibition at 10 µM (Abl) | inhibition at 10 µM (Rsk1) | inhibition at 10 µM (FGFR3)
NC1CCC(Nc2nc(Nc3ccc(C(=O)N4CCCCC4)cc3)c3ncn(-c4ccsc4)c3n2)CC1 (stereo not drawn) [{4-[2-(4-amino-cyclohexylamino)-9-thiophen-3-yl-9H-purin-6-ylamino]-phenyl}-piperidin-1-yl-methanone] | 5 nM | 7 nM |  |  |  |  |  |  |  | 
CS(=O)(=O)c1ccc(Nc2nc(N3CCOCC3)nc3c2ncn3-c2cscn2)cc1 [Compound 503, (4-Methanesulfonyl-phenyl)-(2-morpholin-4-yl-9-thiazol-4-yl-9H-purin-6-yl)-amine] |  |  | 99% | 99% | 99% | 71% | 98% | 81% |  | 
CN1CCC(N(C)c2nc(Nc3ccc(N4CCOCC4)cc3)c3ncn(-c4cscn4)c3n2)CC1 [Compound 539, N^2-Methyl-N^2-(1-methyl-piperidin-4-yl)-N^6-(4-morpholin-4-yl-phenyl)-9-thiazol-4-yl-9H-purine-2,6-diamine] |  |  | 99% | 99% | 100% | 90% | 97% |  | 82% | 
CS(=O)(=O)c1ccc(Nc2nc(NCc3ccccn3)nc3c2ncn3-c2cscn2)cc1 [Compound 554, N^6-(4-Methanesulfonyl-phenyl)-N^2-pyridin-2-ylmethyl-9-thiazol-4-yl-9H-purine-2,6-diamine] |  |  | 95% | 99% | 100% | 86% | 99% | 98% |  | 98%
